Patent publication US9439904B2, “Pyrimidine compounds and their use as gamma secretase modulators” (Acturum Life Science AB, priority 2013, dated 2016)

What was measured:
Aβ42 [1] = assay: HEK assay: Aβ42 secreted to cell medium, Meso Scale Discovery electrochemiluminescence; assay type: cell-based; settings: Homo sapiens, HEK293; HEK cell line stably expressing APPswe; 4-6 hours incubation with test compound; read-out: pIC50 Aβ42 HEK assay (converted)
Aβ42 [2] = assay: PCN assay: Aβ42 secreted by primary cortical neuronal cells, ELISA; assay type: cell-based; settings: primary cortical neuronal cells from 16-day mouse embryos; 16-20 hours incubation with test compound; read-out: pIC50 Aβ42 PCN assay (converted)

| SMILES | IC50 (Aβ42 [1]) | IC50 (Aβ42 [2]) |
| --- | --- | --- |
| COc1cc(Nc2nc(COCC(F)(F)F)cc(C(C)(C)O)n2)ccc1-c1cnnc(C)c1 [Example 47, 2-(2-(3-Methoxy-4-(6-methylpyridazin-4-yl)phenylamino)-6-((2,2,2-trifluoroethoxy)-methyl)pyrimidin-4-yl)propan-2-ol] | 50.1 nM | 100 nM |
| COc1cc(Nc2nc(COCC(F)(F)F)cc(C(C)(O)C(C)C)n2)ccc1-c1cnc(C)o1 (stereo not drawn) [Example 48, 2-(2-(3-Methoxy-4-(2-methyloxazol-5-yl)phenylamino)-6-((2,2,2-trifluoroethoxy)methyl)-pyrimidin-4-yl)-3-methylbutan-2-ol] | 25.1 nM | 50.1 nM |
| COc1cc(Nc2nc(COCC(F)(F)F)cc(C(O)c3ccccc3)n2)ccc1-n1cnc(C)c1 (stereo not drawn) [Example 49, (2-(3-Methoxy-4-(4-methyl-1H-imidazol-1-yl)phenylamino)-6-((2,2,2-trifluoroethoxy)-methyl)pyrimidin-4-yl)(phenyl)methanol] | 79.4 nM | 79.4 nM |
| COc1cc(Nc2nc(COC(CF)CF)cc(C(C)(C)O)n2)ccc1-n1cnc(C)c1 [Example 50, 2-(6-((1,3-Difluoropropan-2-yloxy)methyl)-2-(3-methoxy-4-(4-methyl-1H-imidazol-1-yl)phenylamino)pyrimidin-4-yl)propan-2-ol] | 79.4 nM | 63.1 nM |
| COc1cc(Nc2nc(COCC(F)(F)F)cc(OCC3CC3)n2)ccc1-n1cnc(C)c1 [Example 51, 4-(Cyclopropylmethoxy)-N-[3-methoxy-4-(4-methyl-1H-imidazol-1-yl)phenyl]-6-[(2,2,2-trifluoroethoxy)methyl]pyrimidin-2-amine] | 63.1 nM | 126 nM |
| CCOC1(c2cc(C(C)(C)O)nc(Nc3ccc(-n4cnc(C)c4)c(OC)c3)n2)CC1(F)F (stereo not drawn) [Example 52, 2-(6-(1-Ethoxy-2,2-difluorocyclopropyl)-2-(3-methoxy-4-(4-methyl-1H-imidazol-1-yl)phenylamino)pyrimidin-4-yl)propan-2-ol] | 200 nM | 200 nM |
